The values below come from paper PMC8316980 (ACS chemical neuroscience, 2019).

The assay has as its target T1, MD-2 (myeloid differentiation protein 2) (Homo sapiens, UniProt Q9Y6Y9).
T1 sequence (Q9Y6Y9 19-160): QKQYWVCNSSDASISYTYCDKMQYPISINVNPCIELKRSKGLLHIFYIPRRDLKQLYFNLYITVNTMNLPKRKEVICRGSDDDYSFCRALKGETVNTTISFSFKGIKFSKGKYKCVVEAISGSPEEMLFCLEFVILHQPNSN
Briefly: intrinsic fluorescence quenching titration. Type of assay: binding.

Compound `CN[C@@H](C)Cc1ccccc1` [methamphetamine] displayed a dissociation constant (Kd) of 6.7 ± 0.6 µM.

One may read the Kd as the constant that tells how readily two partners part at equilibrium. Read a low Kd as higher affinity.
